{"source": "ChEMBL document CHEMBL4402510", "about": "“Caprazamycins: Promising lead structures acting on a novel antibacterial target MraY” (Eur J Med Chem, 2019)", "key": {"Enterococcus faecium [1]": {"tested_on": "Enterococcus faecium", "experiment": "Antibacterial activity against Enterococcus faecium ATCC 19434", "assay_type": "functional"}, "Enterococcus faecium [2]": {"tested_on": "Enterococcus faecium", "experiment": "Antibacterial activity against Enterococcus faecium SR7917 (VRE)", "assay_type": "functional"}, "Enterococcus faecalis [3]": {"tested_on": "Enterococcus faecalis", "experiment": "Antibacterial activity against t Enterococcus faecalis after 20 hrs by NCCLS-based two-fold broth dilution method", "assay_type": "functional", "settings": "read-out: MIC"}, "Staphylococcus aureus [4]": {"tested_on": "Staphylococcus aureus", "experiment": "Antibacterial activity against methicillin susceptible Staphylococcus aureus ATCC 29213", "assay_type": "functional"}, "Staphylococcus aureus [5]": {"tested_on": "Staphylococcus aureus", "experiment": "Antibacterial activity against methicillin resistant Staphylococcus aureus after 20 hrs by NCCLS-based two-fold broth dilution method", "assay_type": "functional", "settings": "read-out: MIC"}, "Enterococcus faecium [6]": {"tested_on": "Enterococcus faecium", "experiment": "Antibacterial activity against t Enterococcus faecium after 20 hrs by NCCLS-based two-fold broth dilution method", "assay_type": "functional"}, "Haemophilus influenzae [7]": {"tested_on": "Haemophilus influenzae", "experiment": "Antibacterial activity against Haemophilus influenzae ATCC 10211", "assay_type": "functional"}, "Pseudomonas aeruginosa [8]": {"tested_on": "Pseudomonas aeruginosa", "experiment": "Antibacterial activity against Pseudomonas aeruginosa YY165", "assay_type": "functional"}, "Enterococcus faecalis [9]": {"tested_on": "Enterococcus faecalis", "experiment": "Antibacterial activity against Enterococcus faecalis SR7914 (VRE)", "assay_type": "functional"}, "Enterococcus faecalis [10]": {"tested_on": "Enterococcus faecalis", "experiment": "Antibacterial activity against Enterococcus faecalis ATCC 29212", "assay_type": "functional"}, "Enterococcus faecalis [11]": {"tested_on": "Enterococcus faecalis", "experiment": "Antibacterial activity against t Enterococcus faecalis VRE after 20 hrs by NCCLS-based two-fold broth dilution method", "assay_type": "functional", "settings": "read-out: MIC"}, "Staphylococcus aureus [12]": {"tested_on": "Staphylococcus aureus", "experiment": "Antibacterial activity against methicillin resistant Staphylococcus aureus SR3637", "assay_type": "functional"}, "Pseudomonas aeruginosa [13]": {"tested_on": "Pseudomonas aeruginosa", "experiment": "Antibacterial activity against Pseudomonas aeruginosa after 20 hrs by NCCLS-based two-fold broth dilution method", "assay_type": "functional"}, "Haemophilus influenzae [14]": {"tested_on": "Haemophilus influenzae", "experiment": "Antibacterial activity against Haemophilus influenzae after 20 hrs by NCCLS-based two-fold broth dilution method", "assay_type": "functional"}, "Streptococcus pneumoniae [15]": {"tested_on": "Streptococcus pneumoniae", "experiment": "Antibacterial activity against Streptococcus pneumoniae after 20 hrs by NCCLS-based two-fold broth dilution method", "assay_type": "functional"}, "Staphylococcus aureus [16]": {"tested_on": "Staphylococcus aureus", "experiment": "Antibacterial activity against methicillin susceptible Staphylococcus aureus after 20 hrs by NCCLS-based two-fold broth dilution method", "assay_type": "functional", "settings": "read-out: MIC"}, "[17]": {"tested_on": "Mycobacterium tuberculosis", "experiment": "Inhibition of WecA in Mycobacterium tuberculosis"}, "Escherichia coli": {"tested_on": "Escherichia coli", "experiment": "Antibacterial activity against Escherichia coli after 20 hrs by NCCLS-based two-fold broth dilution method", "assay_type": "functional"}, "Staphylococcus aureus [18]": {"tested_on": "Staphylococcus aureus", "experiment": "Antibacterial activity against methicillin resistant Staphylococcus aureus No. 5", "assay_type": "functional"}, "[19]": {"tested_on": "Mycolicibacterium smegmatis", "experiment": "Antibacterial activity against Mycobacterium smegmatis after 20 hrs by NCCLS-based two-fold broth dilution method", "assay_type": "functional"}, "Streptococcus pneumoniae [20]": {"tested_on": "Streptococcus pneumoniae", "experiment": "Antibacterial activity against Streptococcus pneumoniae CR-8", "assay_type": "functional"}, "[21]": {"tested_on": "Mycobacterium tuberculosis", "experiment": "Antibacterial activity against Mycobacterium tuberculosis after 20 hrs by NCCLS-based two-fold broth dilution method", "assay_type": "functional"}, "[22]": {"molecular_target": "T1, Phospho-N-acetylmuramoyl-pentapeptide-transferase (Bacillus subtilis (strain 168), UniProt Q03521)", "T1 sequence (Q03521 whole entry)": "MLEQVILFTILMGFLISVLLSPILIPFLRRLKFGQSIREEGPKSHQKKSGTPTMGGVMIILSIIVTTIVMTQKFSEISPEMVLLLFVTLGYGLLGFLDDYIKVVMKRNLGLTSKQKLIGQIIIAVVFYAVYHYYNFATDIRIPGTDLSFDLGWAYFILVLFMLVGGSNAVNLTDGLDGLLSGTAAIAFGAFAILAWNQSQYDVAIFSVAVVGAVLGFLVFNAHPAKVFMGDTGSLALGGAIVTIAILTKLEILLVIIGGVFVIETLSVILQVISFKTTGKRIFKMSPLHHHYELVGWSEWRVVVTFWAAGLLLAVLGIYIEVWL", "experiment": "Inhibition of MraY in Bacillus subtilis"}, "[23]": {"tested_on": "Mycobacterium tuberculosis", "experiment": "Antibacterial activity against Mycobacterium tuberculosis H37Rv", "assay_type": "functional"}, "[24]": {"tested_on": "Mycolicibacterium smegmatis", "experiment": "Inhibition of WecA in Mycobacterium smegmatis"}, "Mycolicibacterium vaccae": {"tested_on": "Mycolicibacterium vaccae", "experiment": "Antibacterial activity against Mycobacterium vaccae after 20 hrs by NCCLS-based two-fold broth dilution method", "assay_type": "functional"}, "Streptococcus pneumoniae [25]": {"tested_on": "Streptococcus pneumoniae", "experiment": "Antibacterial activity against Streptococcus pneumoniae S-223", "assay_type": "functional"}, "Staphylococcus aureus [26]": {"tested_on": "Staphylococcus aureus", "experiment": "Antibacterial activity against Staphylococcus aureus FDA209P", "assay_type": "functional", "settings": "FDA 209P"}, "[27]": {"tested_on": "Mycobacterium tuberculosis", "experiment": "Inhibition of WecA in Mycobacterium tuberculosis mc2 6230"}, "Mycolicibacterium phlei": {"tested_on": "Mycolicibacterium phlei", "experiment": "Antibacterial activity against Mycobacterium phlei after 20 hrs by NCCLS-based two-fold broth dilution method", "assay_type": "functional"}, "[28]": {"tested_on": "Mycobacterium intracellulare", "experiment": "Antibacterial activity against Mycobacterium intracellulare after 20 hrs by NCCLS-based two-fold broth dilution method", "assay_type": "functional"}, "Enterococcus faecalis [29]": {"tested_on": "Enterococcus faecalis", "experiment": "Antibacterial activity against Enterococcus faecalis JCM 5803", "assay_type": "functional"}, "[30]": {"experiment": "Antibacterial activity against Mycobacterium avium subsp. avium ATCC 25291", "assay_type": "functional"}, "Mycobacterium avium": {"tested_on": "Mycobacterium avium", "experiment": "Antibacterial activity against Mycobacterium avium after 20 hrs by NCCLS-based two-fold broth dilution method", "assay_type": "functional"}, "[31]": {"tested_on": "Mycobacterium intracellulare", "experiment": "Antibacterial activity against Mycobacterium intracellulare JCM3684", "assay_type": "functional"}, "[32]": {"tested_on": "Mycobacterium avium subsp. paratuberculosis", "experiment": "Antibacterial activity against Mycobacterium avium subsp. paratuberculosis ATCC 43015", "assay_type": "functional"}, "Bacillus subtilis [33]": {"tested_on": "Bacillus subtilis", "experiment": "Antibacterial activity against Bacillus subtilis after 20 hrs by NCCLS-based two-fold broth dilution method", "assay_type": "functional"}, "Enterococcus faecalis [34]": {"tested_on": "Enterococcus faecalis", "experiment": "Antibacterial activity against Enterococcus faecalis NCTC122103", "assay_type": "functional"}, "Bacillus subtilis [35]": {"tested_on": "Bacillus subtilis", "experiment": "Inhibition of TagO in Bacillus subtilis"}, "Klebsiella pneumoniae": {"tested_on": "Klebsiella pneumoniae", "experiment": "Antibacterial activity against Klebsiella pneumoniae after 20 hrs by NCCLS-based two-fold broth dilution method", "assay_type": "functional"}, "Staphylococcus aureus [36]": {"tested_on": "Staphylococcus aureus", "experiment": "Antibacterial activity against Staphylococcus aureus after 20 hrs by NCCLS-based two-fold broth dilution method", "assay_type": "functional"}}, "note": "pIC50: −log10 of the molar value.", "data": [{"smiles": "CCCCCCCCC(CCCCCCCC)C(=O)N[C@@H]1CCN[C@@H]([C@H](O[C@@H]2O[C@H](CN)[C@@H](O)[C@H]2O)[C@H]2O[C@@H](n3ccc(=O)[nH]c3=O)[C@H](O)[C@@H]2O)C1", "values": [{"measurement": "MIC", "setting": "Enterococcus faecium [1]", "value": 8, "unit": "µg/mL"}, {"measurement": "MIC", "setting": "Enterococcus faecium [2]", "value": 8, "unit": "µg/mL"}, {"measurement": "MIC", "setting": "Enterococcus faecalis [3]", "value": 4, "unit": "µg/mL"}, {"measurement": "MIC", "setting": "Staphylococcus aureus [4]", "value": 4, "unit": "µg/mL"}, {"measurement": "MIC", "setting": "Staphylococcus aureus [5]", "value": 8, "unit": "µg/mL"}, {"measurement": "MIC", "setting": "Enterococcus faecium [6]", "value": 8, "unit": "µg/mL"}, {"measurement": "MIC", "setting": "Haemophilus influenzae [7]", "value": 32, "unit": "µg/mL"}, {"measurement": "MIC", "setting": "Pseudomonas aeruginosa [8]", "value": 16, "unit": "µg/mL"}, {"measurement": "MIC", "setting": "Enterococcus faecalis [9]", "value": 4, "unit": "µg/mL"}, {"measurement": "MIC", "setting": "Enterococcus faecalis [10]", "value": 4, "unit": "µg/mL"}, {"measurement": "MIC", "setting": "Enterococcus faecalis [11]", "value": 4, "unit": "µg/mL"}, {"measurement": "MIC", "setting": "Staphylococcus aureus [12]", "value": 8, "unit": "µg/mL"}, {"measurement": "MIC", "setting": "Pseudomonas aeruginosa [13]", "value": 32, "unit": "µg/mL"}, {"measurement": "MIC", "setting": "Haemophilus influenzae [14]", "value": 16, "unit": "µg/mL"}, {"measurement": "MIC", "setting": "Streptococcus pneumoniae [15]", "value": 16, "unit": "µg/mL"}, {"measurement": "MIC", "setting": "Staphylococcus aureus [16]", "value": 4, "unit": "µg/mL"}]}, {"smiles": "CCCCc1ccc(NC(=O)C2=CCN(C)[C@@H]([C@H](O[C@@H]3O[C@H](CN)[C@@H](O)[C@H]3O)[C@H]3O[C@@H](n4ccc(=O)[nH]c4=O)[C@H](O)[C@@H]3O)C(=O)N2C)cc1", "values": [{"measurement": "MIC", "setting": "[17]", "value": 0.04, "unit": "µg/mL"}, {"measurement": "MIC", "setting": "Escherichia coli", "value": "> 100", "unit": "µg/mL"}, {"measurement": "MIC", "setting": "Staphylococcus aureus [18]", "value": "8 to 100", "unit": "µg/mL"}, {"measurement": "MIC", "setting": "[19]", "value": 6.25, "unit": "µg/mL"}, {"measurement": "MIC", "setting": "Streptococcus pneumoniae [20]", "value": "8 to 100", "unit": "µg/mL"}, {"measurement": "MIC", "setting": "[21]", "value": 1.56, "unit": "µg/mL"}, {"measurement": "pIC50", "setting": "[22]", "value": 6.24}, {"measurement": "MIC", "setting": "[23]", "value": "0.2 to 1.56", "unit": "µg/mL"}, {"measurement": "MIC", "setting": "Staphylococcus aureus [5]", "value": 100, "unit": "µg/mL"}, {"measurement": "MIC", "setting": "[24]", "value": 0.0044, "unit": "µg/mL"}, {"measurement": "MIC", "setting": "Mycolicibacterium vaccae", "value": 50, "unit": "µg/mL"}, {"measurement": "MIC", "setting": "Streptococcus pneumoniae [25]", "value": "8 to 100", "unit": "µg/mL"}, {"measurement": "MIC", "setting": "Staphylococcus aureus [26]", "value": "8 to 100", "unit": "µg/mL"}, {"measurement": "MIC", "setting": "[27]", "value": 0.04, "unit": "µg/mL"}, {"measurement": "MIC", "setting": "Mycolicibacterium phlei", "value": 12.5, "unit": "µg/mL"}, {"measurement": "MIC", "setting": "[28]", "value": 0.2, "unit": "µg/mL"}, {"measurement": "MIC", "setting": "Enterococcus faecalis [29]", "value": "8 to 100", "unit": "µg/mL"}, {"measurement": "MIC", "setting": "[30]", "value": "0.2 to 1.56", "unit": "µg/mL"}, {"measurement": "MIC", "setting": "Mycobacterium avium", "value": "0.39 to 1.56", "unit": "µg/mL"}, {"measurement": "MIC", "setting": "[31]", "value": "0.2 to 1.56", "unit": "µg/mL"}, {"measurement": "MIC", "setting": "[32]", "value": "0.2 to 1.56", "unit": "µg/mL"}, {"measurement": "MIC", "setting": "Bacillus subtilis [33]", "value": 3.13, "unit": "µg/mL"}, {"measurement": "MIC", "setting": "Enterococcus faecalis [34]", "value": "8 to 100", "unit": "µg/mL"}, {"measurement": "MIC", "setting": "Bacillus subtilis [35]", "value": 0.05, "unit": "µg/mL"}, {"measurement": "MIC", "setting": "Klebsiella pneumoniae", "value": 50, "unit": "µg/mL"}, {"measurement": "MIC", "setting": "Staphylococcus aureus [36]", "value": 25, "unit": "µg/mL"}]}]}
